Literature values, collected in patent publication US10633811B1, “Apparatus and method for collecting and disposing of pet waste” (COSMIC PET LLC, priority 2017, dated 2020).

Assays:
[1] = test system: Pseudomonas aeruginosa PAO1; details: CAMHB, 0.1% Tween 80
[2] = test system: C.jejuni 108
[3] = test system: C.jejuni 81116
[4] = test system: Campylobacter jejuni; details: strain not given
[5] = test system: C. jejuni C338; details: Table 3, single compounds; Nutrient Broth No. 2, 37° C., Tween 80 0.002% vol/vol
[6] = test system: C. jejuni 3393; details: Table 3, single compounds; Nutrient Broth No. 2, 37° C., Tween 80 0.002% vol/vol
[7] = test system: C. coli ATCC 43484; details: Table 3, single compounds; Nutrient Broth No. 2, 37° C., Tween 80 0.002% vol/vol
[8] = test system: E. coli O26; details: Table 3, single compounds; Nutrient Broth No. 2, 37° C., Tween 80 0.002% vol/vol
[9] = test system: S. typhimurium ATCC 14028; details: Table 3, single compounds; Nutrient Broth No. 2, 37° C., Tween 80 0.002% vol/vol
[10] = test system: E. faecalis ATCC 29212; details: Table 3, single compounds; Nutrient Broth No. 2, 37° C., Tween 80 0.002% vol/vol
[11] = test system: Campylobacter spp.; details: against Campylobacter spp., E. coli, S. typhimurium, and E. faecalis

Compound	MIC [1] [%]	C.jejuni 108 MIC [2] [µM]	C.jejuni 81116 MIC [3] [µM]	concentration that inhibits Campylobacter jejuni [4] [mM]	C. jejuni C338 (MIC %) [5] [%]	C. jejuni 3393 (MIC %) [6] [%]	C. coli ATCC 43484 (MIC %) [7] [%]	E. coli O26 (MIC %) [8] [%]	S. typhimurium ATCC 14028 (MIC %) [9] [%]	E. faecalis ATCC 29212 (MIC %) [10] [%]	antimicrobial activity among single compounds [11]
O=CC=Cc1ccccc1 [Cinnamaldehyde]	0.1										
Cc1ccc(C(C)C)cc1O [Carvacrol]		300 to 400	300 to 400	0.3 to 0.4							
C=CCc1ccc(O)c(OC)c1 [Eugenol]	>5										
CC1=CCC(O)(C(C)C)CC1 (stereo not shown) [Terpinen-4-ol]					0.06	0.06	0.06	0.06	0.06	0.5	highest activity
C=CC(C)(O)CCC=C(C)CCC=C(C)C (stereo not shown) [Nerolidol]					0.5	0.5	1	>2	>2	>2	
CC1=CC=C(C(C)C)CC1 [α-Terpinene]					0.25	0.125	0.125	>2	>2	>2	
C=CC(C)(O)CCC=C(C)C (stereo not shown) [Linalool]	>5										
CC12CCC(CC1)C(C)(C)O2 [Cineole]					0.25	0.25	0.25	1	2	>2	
α-Bisabolol					0.5	0.125	0.5	2	>2	>2	
